Test results published in patent US4742049A, “Semisynthetic erythromycin antibiotics” (Abbott Laboratories, priority 1986, dated 1988).
Values after ≈ are worked out from the molar mass of the structure shown. Where two headings read alike, the source gives them in different places.

Key:
Providencia stuartii = assay: antimicrobial spectrum, agar dilution MIC; format: cell-based; details: strain CMX 640, BHI agar, 20-24 hours
Method in brief: (§1)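 Endpoint: lowest concentration yielding no growth, slight haze or few isolated colonies on the inoculum spot, judged against growth control. Plates contained BHI agar with graded compound levels, were replicator-inoculated, and were held at 35°-37° C. for 20-24 hours.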

Pseudomonas aeruginosa = assay: antimicrobial spectrum, agar dilution MIC; format: cell-based; details: Pseudomonas aeruginosa, BHI agar, 20-24 hours
Method in brief: as §1

Staph. aureus = assay: antimicrobial spectrum, agar dilution MIC; format: cell-based; details: Staphylococcus aureus, BHI agar, 20-24 hours
Method in brief: as §1

Staph. epidermidis = assay: antimicrobial spectrum, agar dilution MIC; format: cell-based; details: Staphylococcus epidermidis, BHI agar, 20-24 hours
Method in brief: as §1

Strep. agalactiae = assay: antimicrobial spectrum, agar dilution MIC; format: cell-based; details: Streptococcus agalactiae, BHI agar, 20-24 hours
Method in brief: as §1

Strep. bovis = assay: antimicrobial spectrum, agar dilution MIC; format: cell-based; details: Streptococcus equinus, strain A5169; BHI agar, 20-24 hours
Method in brief: as §1

Strep. faecalis = assay: antimicrobial spectrum, agar dilution MIC; format: cell-based; details: Enterococcus faecalis, BHI agar, 20-24 hours
Method in brief: as §1

Strep. faecium = assay: antimicrobial spectrum, agar dilution MIC; format: cell-based; details: Enterococcus faecium, ATCC8043, strain ATCC 8043; BHI agar, 20-24 hours
Method in brief: as §1

Strep. pneumoniae = assay: antimicrobial spectrum, agar dilution MIC; format: cell-based; details: Streptococcus pneumoniae
Method in brief: as §1

Strep. pyogenes = assay: antimicrobial spectrum, agar dilution MIC; format: cell-based; details: Streptococcus pyogenes, BHI agar, 20-24 hours
Method in brief: as §1

E. coli = assay: antimicrobial spectrum, agar dilution MIC; format: cell-based; details: Escherichia coli, BHI agar, 20-24 hours
Micrococcus luteus = assay: antimicrobial spectrum, agar dilution MIC; format: cell-based; details: 20-24 hours
Lactobacillus Casei = assay: antimicrobial spectrum, agar dilution MIC; format: cell-based; details: Lacticaseibacillus casei, ATCC7469, strain ATCC 7469; BHI agar, 20-24 hours
Ent. aerogenes = assay: antimicrobial spectrum, agar dilution MIC; format: cell-based; details: Klebsiella aerogenes, ATCC10348, strain ATCC 10348; BHI agar, 20-24 hours
Klebsiella pneumoniae = assay: antimicrobial spectrum, agar dilution MIC; format: cell-based; details: strain 8045, BHI agar, 20-24 hours
Pseudomonas cepacia = assay: antimicrobial spectrum, agar dilution MIC; format: cell-based; details: Burkholderia cepacia, strain 2961; BHI agar, 20-24 hours; read-out: MIC
Description: Erythromycin A was used for this purpose.
After incubation, each disk is read.

Acinetobacter SP = assay: antimicrobial spectrum, agar dilution MIC; format: cell-based; details: strain CMX 669, BHI agar, 20-24 hours
Staph. saprophyticus = assay: microbe, parasite or virus in culture; details: Staphylococcus saprophyticus, ATCC15305
Description: Twelve petri dishes containing successive aqueous dilutions of the test compound mixed with 10 ml of sterilized Brain Heart Infusion agar (Difco 0418-01-5) are prepared. Each plate is inoculated with 1:100 (or 1:10 for slow-growing strains, primarily Micrococcus and Streptococcus) dilutions of up to 32 different microorganisms, using a Steers replicator block. The inoculated plates are incubated at 35°-37° C. for 20-24 hours. In addition, a control plate, using BHI agar containing no test compound, is prepared and incubated at the beginning and end of each test.
An additional plate containing a compound having known susceptibility patterns for the organisms being tested and belonging to the same antibiotic class as the test compound is also prepared and incubated as a further control, as well as to provide test-to-test comparability.
After incubation, each disk is read. The MIC is defined as the lowest concentration of drug yielding no growth, a slight haze, or sparsely isolated colonies on the inoculum spot as compared to the growth control.

[1] = system: gut contractions (stomach, duodenum, jejunum); details: dog, in vivo, iv, 4 mg/kg
Description: Compounds of this invention have been tested for gastrointestinal stimulating activity in a dog model at 4 mg/kg intravenously. Contractions in the gut were recorded with surgically implanted strain gauges. […] Ratios were calculated for the stomach, duodenum and jejunum, and a final arithmetic mean index was calculated and reported in Table 1.

Staph. aureus NCTC 10649 = assay: acute mouse protection test; details: for ED50: Staphylococcus aureus, NCTC10649, in Mus musculus, 168 h, dosed 1 and 5 hours post-infection, observed 7 days; for # Died: ten mice
Description: The acute mouse protection test is conducted on ten mice with each of three levels of drug.
The acute mouse protection test is conducted on female, Swiss albino mice, 18-20 grams in weight. The mice are injected intraperitoneally with an 18-hour culture of the indicated test organism diluted sufficiently to provide the desired LD50 value. To check the potency of the inoculum, a titration of the indicated test organism is carried out in control animals. […] The ED50 values are calculated using the mortality data collected.

`CC[C@H]1OC(=O)[C@H](C)[C@@H](O[C@H]2C[C@@](C)(OC)[C@@H](O)[C@H](C)O2)[C@H](C)[C@@H](O[C@@H]2O[C@H](C)C[C@H](N(C)C)[C@H]2O)[C@](C)(OC)C[C@@H](C)C(=O)[C@H](C)[C@H]2NC(=O)O[C@@]21C` [Example 2, 11-deoxy-6-O-methyl erythromycin A 11,12 cyclic carbamate] gave an MIC (Providencia stuartii) greater than 100 µg/mL, an MIC (Pseudomonas aeruginosa; strain 5007) of 100 µg/mL (≈ 129 µM) and an MIC (Pseudomonas aeruginosa; strain BMH10) of 50 µg/mL (≈ 64.7 µM). The MIC (Pseudomonas aeruginosa; strain K799/61) was 1.56 µg/mL (≈ 2.02 µM), the MIC (Pseudomonas aeruginosa; strain K799/WT) was 50 µg/mL (≈ 64.7 µM) and the MIC (Staph. aureus; ATCC6538P, strain ATCC 6538P) was 0.1 µg/mL (≈ 0.129 µM). It also gave an MIC (Staph. aureus; ATCC25923, strain ATCC 25923) of 0.015 µg/mL (≈ 0.0194 µM), an MIC (Staph. aureus; NCTC10649, strain NCTC 10649, read-out: MIC) of 0.06 µg/mL (≈ 0.0776 µM) and an MIC (Staph. aureus; strain 45) of 0.1 µg/mL (≈ 0.129 µM). The MIC (Staph. aureus; strain 45 RAR 2) was 0.2 µg/mL (≈ 0.259 µM), the MIC (Staph. aureus; strain 642A) was 0.03 µg/mL (≈ 0.0388 µM) and the MIC (Staph. aureus; strain A5177) was 0.39 µg/mL (≈ 0.505 µM). The MIC (Staph. aureus; strain A-5278) was greater than 128 µg/mL, the MIC (Staph. aureus; strain CMX 686B) was 0.1 µg/mL (≈ 0.129 µM) and the MIC (Staph. aureus; strain CMX 705) was 0.015 µg/mL (≈ 0.0194 µM). It also gave an MIC (Staph. aureus; strain CMX 730A) of 0.015 µg/mL (≈ 0.0194 µM), an MIC (Staph. aureus; strain CMX 739A) of 0.015 µg/mL (≈ 0.0194 µM) and an MIC (Staph. aureus; strain GYR 1150) of 0.03 µg/mL (≈ 0.0388 µM). It also gave an MIC (Staph. aureus; strain GYR 1162) of 0.03 µg/mL (≈ 0.0388 µM), an MIC (Staph. epidermidis; strain 3519) of 0.05 µg/mL (≈ 0.0647 µM) and an MIC (Staph. epidermidis; strain 3519 RARI) of 0.05 µg/mL (≈ 0.0647 µM). The MIC (Staph. epidermidis; strain CMX 724G) was greater than 128 µg/mL, the MIC (Staph. epidermidis; strain CMX 728) was 0.03 µg/mL (≈ 0.0388 µM) and the MIC (Staph. epidermidis; strain CMX 729h) was greater than 128 µg/mL. The MIC (Staph. epidermidis; strain GYR 1151) was 0.03 µg/mL (≈ 0.0388 µM), the MIC (Strep. agalactiae; strain CMX 508) was 0.01 µg/mL (≈ 0.0129 µM) and the MIC (Strep. agalactiae; strain CMX 633) was 0.015 µg/mL (≈ 0.0194 µM). It also gave an MIC (Strep. bovis) of 0.02 µg/mL (≈ 0.0259 µM), an MIC (Strep. faecalis; strain A-5168) greater than 128 µg/mL and an MIC (Strep. faecalis; strain CMX 663F) of 0.5 µg/mL (≈ 0.647 µM). For the same molecule, the MIC (Strep. faecalis; strain CMX 729G, read-out: MIC) was 0.12 µg/mL (≈ 0.155 µM), the MIC (Strep. faecalis; strain CMX 736F, read-out: MIC) was 0.06 µg/mL (≈ 0.0776 µM) and the MIC (Strep. faecalis; strain GYR 1164, read-out: MIC) was 0.12 µg/mL (≈ 0.155 µM). The MIC (Strep. faecalis; strain GYR 1166, read-out: MIC) was 0.06 µg/mL (≈ 0.0776 µM), the MIC (Strep. faecalis; strain GYR 1167, read-out: MIC) was 0.12 µg/mL (≈ 0.155 µM) and the MIC (Strep. faecium) was 0.05 µg/mL (≈ 0.0647 µM). For the same molecule, the MIC (Strep. pneumoniae) was 16 µg/mL (≈ 20.7 µM), the MIC (Strep. pneumoniae; strain CMX 635, BHI agar, 20-24 hours) was 0.004 µg/mL (≈ 0.00517 µM) and the MIC (Strep. pneumoniae; strain CMX 698, BHI agar, 20-24 hours) was 0.004 µg/mL (≈ 0.00517 µM). The MIC (Strep. pyogenes; strain 930) was greater than 100 µg/mL, the MIC (Strep. pyogenes; strain C203) was 0.004 µg/mL (≈ 0.00517 µM) and the MIC (Strep. pyogenes; strain EES61) was 0.05 µg/mL (≈ 0.0647 µM). It also gave an MIC (Strep. pyogenes; strain M79061-98, read-out: MIC) of 0.25 µg/mL (≈ 0.323 µM), an MIC (Strep. pyogenes; strain M79061-139) of 0.004 µg/mL (≈ 0.00517 µM) and an MIC (Strep. pyogenes; strain M79061-140) of 0.004 µg/mL (≈ 0.00517 µM). The MIC (E. coli; strain DC-2) was 50 µg/mL (≈ 64.7 µM), the MIC (E. coli; strain H560) was 3.1 µg/mL (≈ 4.01 µM) and the MIC (E. coli; strain JUHL) was 50 µg/mL (≈ 64.7 µM). It also gave an MIC (E. coli; strain KNK 437) of 25 µg/mL (≈ 32.3 µM), an MIC (E. coli; strain SS) of 0.39 µg/mL (≈ 0.505 µM) and an MIC (Micrococcus luteus; strain 4698, BHI agar) of 0.39 µg/mL (≈ 0.505 µM). For the same molecule, the MIC (Micrococcus luteus; strain 9341, BHI agar) was 0.05 µg/mL (≈ 0.0647 µM), the MIC (Lactobacillus Casei) was 0.05 µg/mL (≈ 0.0647 µM) and the MIC (Ent. aerogenes) was 100 µg/mL (≈ 129 µM). It also gave an MIC (Klebsiella pneumoniae) of 50 µg/mL (≈ 64.7 µM), an MIC (Pseudomonas cepacia) of 25 µg/mL (≈ 32.3 µM) and an MIC (Acinetobacter SP) of 6.2 µg/mL (≈ 8.02 µM). For the same molecule, the MIC (Staph. saprophyticus) was 0.03 µg/mL (≈ 0.0388 µM), the “Gastrointestinal Motility Index” value [1] was 1.18 and the ED50 (Staph. aureus NCTC 10649; po, dosage medium Carboxymethylcellulose) was 45.2 mg/kg. For the same molecule, the ED50 (Staph. aureus NCTC 10649; po, dosage medium PBS) was 34.4 mg/kg, the ED50 (Staph. aureus NCTC 10649; sc, subcutaneous, dosage medium Injectable solution) was 5 mg/kg and the “# Died” value (Staph. aureus NCTC 10649; oral, Carboxymethylcellulose, 9.4 mg/kg) was 10. The “# Died” value (Staph. aureus NCTC 10649; oral, Carboxymethylcellulose, 62.5 mg/kg) was 7, the “# Died” value (Staph. aureus NCTC 10649; oral, Carboxymethylcellulose, 150.0 mg/kg) was 0 and the “# Died” value (Staph. aureus NCTC 10649; oral, PBS, 9.4 mg/kg) was 10. The “# Died” value (Staph. aureus NCTC 10649; oral, PBS, 62.5 mg/kg) was 7, the “# Died” value (Staph. aureus NCTC 10649; oral, PBS, 150.0 mg/kg) was 0 and the “# Died” value (Staph. aureus NCTC 10649; subcutaneous, Injectable solution, 2.5 mg/kg) was 9. The “# Died” value (Staph. aureus NCTC 10649; subcutaneous, Injectable solution, 10.0 mg/kg) was 1 and the “# Died” value (Staph. aureus NCTC 10649; subcutaneous, Injectable solution, 40.0 mg/kg) was 0.
